From patent US20220289794A1, “SYNTHETIC ANTIMICROBIAL PEPTIDES” (priority 2019, published 2022)
In brackets after ≈: the same amount, converted by molar mass. Non-standard residues stand in square brackets, D forms with d. Residues, ends and D or L forms follow the SMILES beside them. Dip = N[C@H](C(=O)O)C(c1ccccc1)c1ccccc1; 2Nal = N[C@@H](Cc1ccc2ccccc2c1)C(=O)O; d2Nal = N[C@H](Cc1ccc2ccccc2c1)C(=O)O; Dab = NCC[C@H](N)C(=O)O

Columns and labels:
[1] = system: Methicillin-resistant Staphylococcus aureus MRSA (ATCC BAA-1556); conditions: ATCC BAA-1556
S. aureus ATCC 29213 = conditions: ATCC 29213
[2] = system: Pseudomonas aeruginosa (ATCC 27883); conditions: ATCC 27883
[3] = system: Escherichia coli (ATCC 25922); conditions: ATCC 25922
human red blood cells = system: human red blood cells; design: unit not given beside the values

Row | Compound | MIC MRSA ATCC BAA-1556 [1] [µg/mL] | MIC S. aureus ATCC 29213 (S. aureus ATCC 29213) [µg/mL] | MIC P. aeruginosa ATCC 27883 [2] [µg/mL] | MIC E. coli ATCC 25922 [3] [µg/mL] | HC50 (human red blood cells)
1 | N=C(N)NCCC[C@@H]1NC(=O)[C@H](CCCNC(=N)N)NC(=O)[C@H](CCCNC(=N)N)NC(=O)[C@H](Cc2ccc3ccccc3c2)NC(=O)[C@H](Cc2ccc3ccccc3c2)NC(=O)[C@H](Cc2ccc3ccccc3c2)NC(=O)[C@H](CCCNC(=N)N)NC1=O [IFX-009, c[Arg-Arg-Arg-Arg-NaI-NaI-NaI]] (cyclo(RRRR[2Nal][2Nal][2Nal])) | 1.5 (≈ 1.23 µM) | 1.5 (≈ 1.23 µM) | 12.5 (≈ 10.3 µM) | 25 (≈ 20.6 µM) | 205
2 | N=C(N)NCCC[C@H](NC(=O)[C@H](CCCNC(=N)N)NC(=O)[C@@H](N)CCCNC(=N)N)C(=O)N[C@@H](Cc1ccc2ccccc2c1)C(=O)N[C@@H](Cc1ccc2ccccc2c1)C(=O)N[C@@H](Cc1ccc2ccccc2c1)C(=O)O [IFX-003-1, NH2-Arg-Arg-Arg-NaI -NaI-NaI-OH] (H-RRR[2Nal][2Nal][2Nal]-OH) | 3.1 (≈ 2.87 µM) | 3.1 (≈ 2.87 µM) | 25 (≈ 23.2 µM) | 16 (≈ 14.8 µM) | 310
3 | N=C(N)NCCC[C@@H]1NC(=O)[C@H](CCCNC(=N)N)NC(=O)[C@H](CCCNC(=N)N)NC(=O)[C@H](C(c2ccccc2)c2ccccc2)NC(=O)[C@H](C(c2ccccc2)c2ccccc2)NC(=O)[C@H](C(c2ccccc2)c2ccccc2)NC(=O)[C@H](C(c2ccccc2)c2ccccc2)NC(=O)[C@H](CCCNC(=N)N)NC1=O [IFX-005, c[Arg-Arg-Arg-Arg-Dip-Dip-Dip-Dip]] (cyclo([Dip][Dip][Dip][Dip]RRRR)) | 6.2 (≈ 4.08 µM) | 3.1 (≈ 2.04 µM) | 25 (≈ 16.5 µM) | 25 (≈ 16.5 µM) | 95
4 | N=C(N)NCCC[C@H](NC(=O)[C@H](CCCNC(=N)N)NC(=O)[C@@H](N)CCCNC(=N)N)C(=O)N[C@H](C(=O)N[C@H](C(=O)N[C@@H](Cc1c[nH]c2ccccc12)C(=O)O)C(c1ccccc1)c1ccccc1)C(c1ccccc1)c1ccccc1 [IFX-022-1, NH2-R-R-R-Dip-Dip-Trp-OH] (H-RRR[Dip][Dip]W-OH) | 12.5 (≈ 11.2 µM) | 12.5 (≈ 11.2 µM) | 50 (≈ 44.7 µM) | 25 (≈ 22.3 µM) | 380

Continued, values first:

Row | MIC MRSA ATCC BAA-1556 [1] [µg/mL] | MIC S. aureus ATCC 29213 (S. aureus ATCC 29213) [µg/mL] | MIC P. aeruginosa ATCC 27883 [2] [µg/mL] | MIC E. coli ATCC 25922 [3] [µg/mL] | HC50 (human red blood cells) | Compound
5 | 64 (≈ 45.5 µM) | 32 (≈ 22.8 µM) | 32 (≈ 22.8 µM) | 32 (≈ 22.8 µM) | 655 | N=C(N)NCCC[C@@H]1NC(=O)[C@H](CCN)NC(=O)[C@@H](Cc2ccc3ccccc3c2)NC(=O)[C@@H](Cc2ccc3ccccc3c2)NC(=O)[C@H](Cc2c[nH]c3ccccc23)NC(=O)[C@@H](CCCNC(=N)N)NC(=O)[C@H](CCCNC(=N)N)NC(=O)[C@H](CCN)NC(=O)[C@@H](CCCNC(=N)N)NC1=O [IFX-058, c[Dab-Arg-arg-Dab-Arg-arg-Trp-naI-naI]] (cyclo([Dab]R[dR][Dab]R[dR]W[d2Nal][d2Nal]))
6 | 6.2 (≈ 4.86 µM) | 6.2 (≈ 4.86 µM) | 50 (≈ 39.2 µM) | 25 (≈ 19.6 µM) | 570 | N=C(N)NCCC[C@H](NC(=O)[C@H](CCCNC(=N)N)NC(=O)[C@@H](N)CCCNC(=N)N)C(=O)N[C@@H](CCCNC(=N)N)C(=O)N[C@H](C(=O)N[C@H](C(=O)N[C@@H](Cc1c[nH]c2ccccc12)C(=O)O)C(c1ccccc1)c1ccccc1)C(c1ccccc1)c1ccccc1 [IFX-028-1, NH2-R-R-R-R-Dip-Dip-Trp-OH] (H-RRRR[Dip][Dip]W-OH)
7 | 6.2 (≈ 4.53 µM) | 6.2 (≈ 4.53 µM) | 25 (≈ 18.3 µM) | 12.5 (≈ 9.13 µM) | 670 | N=C(N)NCCC[C@@H]1NC(=O)[C@H](CCCNC(=N)N)NC(=O)[C@H](CCCNC(=N)N)NC(=O)[C@@H](Cc2c[nH]c3ccccc23)NC(=O)[C@@H](Cc2c[nH]c3ccccc23)NC(=O)[C@@H](Cc2c[nH]c3ccccc23)NC(=O)[C@@H](Cc2c[nH]c3ccccc23)NC(=O)[C@H](CCCNC(=N)N)NC1=O [IFX-035, c[Arg-Arg-Arg-Arg-trp-trp-trp-trp]] (cyclo(RRRR[dW][dW][dW][dW]))
